Results reported in PubChem BioAssay (NCI).
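Five compound concentrations were applied to cells in 96-well plates for 48 hours; endpoints were derived by simple linear interpolation of the resulting dose-response curve. TGI: total growth inhibition.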

Experiments:
Assay in all cases: inhibition of tumour cell growth, NCI panel, 48 h
[1] = test system: IGROV1 ovarian
[2] = test system: SK-MEL-5 melanoma
[3] = test system: SF-295 CNS
[4] = test system: HOP-92 NSCLC
[5] = test system: SW-620 colon
[6] = test system: CAKI-1 renal
[7] = test system: ACHN renal
[8] = test system: NCI/ADR-RES ovarian
[9] = test system: MDA-N
[10] = test system: A498 renal

Structure (SMILES)	TGI [1] [µM]	TGI [2] [µM]	TGI [3] [µM]	TGI [4] [µM]	TGI [5] [µM]	TGI [6] [µM]	TGI [7] [µM]	TGI [8] [µM]	TGI [9] [µM]	TGI [10] [µM]
O=C(NN1C(=O)C(Cl)C1c1ccc([N+](=O)[O-])cc1)c1ccccc1O (stereo unspecified)	> 100	> 100	> 100	> 100	> 100	–	–	–	–	–
Cc1ccc(C(=O)NC(C)C)cc1N=NN(C)C	> 100	> 100	> 100	> 100	> 100	> 100	> 100	–	–	–
COc1ccc2c(c1)Cc1c-2[nH]c2cc3c(cc2c1=O)OCO3	59.5	19.4	51.7	48.5	> 100	> 100	30.5	–	–	–
CC(=O)O[C@@H]1CC2[C@@H](CCC3Cc4nc5c(nc4C[C@@]32C)CC2CC[C@@H]3C(CC[C@@]4(C)C3CC[C@@H]4C(C)CCCC(C)C)[C@@]2(C)C5)C2C[C@@H]3OC4(CCC(C)CO4)C(C)[C@@H]3[C@]21C (stereo partly specified)	> 100	> 100	> 100	70	> 100	–	> 100	> 100	> 100	–
COC(=O)C1=C2Nc3ccccc3C23CCN2C(O)C4(CC5CC67CCOC6CCN6CCC8(c9cccc(OC)c9N(C4)C58O)C67)C4OCCC4(C1)C23 (stereo unspecified)	> 100	> 100	> 100	87.7	> 100	> 100	> 100	–	> 100	> 100
COc1cc(OC)c(NC2=NCCO2)cc1Cl	> 100	47.3	> 100	–	> 100	–	> 100	91.7	32.3	81.5
COC(=O)C(Cc1ccccc1)NC(=O)C(CCCN=C(N)N)NC(=O)OCc1ccccc1 (stereo unspecified)	> 100	> 100	> 100	> 100	> 100	> 100	> 100	> 100	> 100	–
CC(C(O)c1ccccc1)[N+](=O)[O-] (stereo unspecified)	34.4	39.1	61.4	–	> 100	30.6	33.7	93.1	–	36.3
O=C(/C=C/c1ccsc1)c1ccc(Cl)s1	> 100	> 100	> 100	–	55.5	> 100	> 100	> 100	> 100	> 100
COc1cc(C2c3cc4c(cc3OC(N3CCOCC3)C2C)OCO4)cc(OC)c1OC (stereo unspecified)	47.7	6.78	10.4	60.2	> 100	23.3	50.3	2.01	0.439	–
FC(F)(F)c1nc2cc(SSc3cc4nc(C(F)(F)F)[nH]c4cc3Cl)c(Cl)cc2[nH]1	> 100	> 100	> 100	–	> 100	> 100	> 100	> 100	–	> 100
Cc1ccc(C(=O)/C=C/N2CCN(c3cccc(C(F)(F)F)c3)CC2)cc1	31.4	29.2	34	> 100	49.8	37	60.5	33	–	33.3
